System: SEM cells
Experiment: cell viability relative to DMSO control; higher = less cytotoxic
Conditions: 48 h
In short: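 In 1536-well plates, 5 μl of leukemia cells were seeded per well: 500 cells/well for NOMO1 or SEM and 1000 cells/well for P12-Ichikawa. Each line had first been adapted for at least four passages in each medium. Library compounds in DMSO were pin-dosed at 11 threefold concentrations between 47 μM and 0.79 nM, and CellTiter-Glo One luminescence was read after 48 h at 37°C. Viability is a per-plate percentage relative to DMSO wells, with cell-free wells as background.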

[1] = HPLM + 10% dialyzed FBS, 0.000781 µM
[2] = HPLM + 10% dialyzed FBS, 0.00234 µM
[3] = HPLM + 10% dialyzed FBS, 0.00702 µM
[4] = HPLM + 10% dialyzed FBS, 0.0211 µM
[5] = HPLM + 10% dialyzed FBS, 0.0632 µM
[6] = HPLM + 10% dialyzed FBS, 0.19 µM
[7] = HPLM + 10% dialyzed FBS, 0.569 µM
[8] = HPLM + 10% dialyzed FBS, 1.71 µM
[9] = HPLM + 10% dialyzed FBS, 5.12 µM
[10] = HPLM + 10% dialyzed FBS, 15.4 µM
[11] = HPLM + 10% dialyzed FBS, 46.1 µM
[12] = RPMI 5 mM glucose + 10% dialyzed FBS, 0.000781 µM
[13] = RPMI 5 mM glucose + 10% dialyzed FBS, 0.00234 µM
[14] = RPMI 5 mM glucose + 10% dialyzed FBS, 0.00702 µM
[15] = RPMI 5 mM glucose + 10% dialyzed FBS, 0.0211 µM
[16] = RPMI 5 mM glucose + 10% dialyzed FBS, 0.0632 µM
[17] = RPMI 5 mM glucose + 10% dialyzed FBS, 0.19 µM
[18] = RPMI 5 mM glucose + 10% dialyzed FBS, 0.569 µM
[19] = RPMI 5 mM glucose + 10% dialyzed FBS, 1.71 µM
[20] = RPMI 5 mM glucose + 10% dialyzed FBS, 5.12 µM
[21] = RPMI 5 mM glucose + 10% dialyzed FBS, 15.4 µM
[22] = RPMI 5 mM glucose + 10% dialyzed FBS, 46.1 µM
[23] = RPMI 5 mM glucose + 10% FBS, 0.000781 µM
[24] = RPMI 5 mM glucose + 10% FBS, 0.00234 µM
[25] = RPMI 5 mM glucose + 10% FBS, 0.00702 µM
[26] = RPMI 5 mM glucose + 10% FBS, 0.0211 µM
[27] = RPMI 5 mM glucose + 10% FBS, 0.0632 µM
[28] = RPMI 5 mM glucose + 10% FBS, 0.19 µM
[29] = RPMI 5 mM glucose + 10% FBS, 0.569 µM
[30] = RPMI 5 mM glucose + 10% FBS, 1.71 µM
[31] = RPMI 5 mM glucose + 10% FBS, 5.12 µM
[32] = RPMI 5 mM glucose + 10% FBS, 15.4 µM
[33] = RPMI 5 mM glucose + 10% FBS, 46.1 µM

Row | Structure (SMILES) | cell viability [1] [%] | cell viability [2] [%] | cell viability [3] [%] | cell viability [4] [%] | cell viability [5] [%] | cell viability [6] [%] | cell viability [7] [%] | cell viability [8] [%] | cell viability [9] [%] | cell viability [10] [%] | cell viability [11] [%] | cell viability [12] [%] | cell viability [13] [%] | cell viability [14] [%] | cell viability [15] [%] | cell viability [16] [%] | cell viability [17] [%] | cell viability [18] [%] | cell viability [19] [%] | cell viability [20] [%] | cell viability [21] [%] | cell viability [22] [%] | cell viability [23] [%] | cell viability [24] [%] | cell viability [25] [%] | cell viability [26] [%] | cell viability [27] [%] | cell viability [28] [%] | cell viability [29] [%] | cell viability [30] [%] | cell viability [31] [%] | cell viability [32] [%] | cell viability [33] [%]
1 | NC[C@H]1CC[C@H](C(=O)O)CC1 | 58.2 | 128 | 113 | 111 | 119 | 131 | 123 | 124 | 113 | 111 | 104 | 56.4 | 110 | 106 | 126 | 106 | 104 | 99.9 | 116 | 99.7 | 102 | 92.7 |  |  |  |  |  |  |  |  |  |  | 
2 | CC1=NN(c2ccc(C)c(C)c2)C(=O)/C1=N/Nc1cccc(-c2cccc(C(=O)O)c2)c1O | 121 | 119 | 125 | 128 | 111 | 117 | 120 | 119 | 109 | 97.6 | 75.3 |  |  |  |  |  |  |  |  |  |  |  | 124 | 122 | 128 | 130 | 129 | 122 | 123 | 122 | 121 | 90.4 | 54.7
3 | C[C@H](NC(=O)/C(C#N)=C/c1cccc(Br)n1)c1ccccc1 | 89.8 | 102 | 98.7 | 109 | 118 | 112 | 103 | 40.7 | 8.01 | 6.81 | 6.6 | 74.5 | 116 | 102 | 122 | 104 | 116 | 108 | 38.2 | 8.38 | 7.55 | 7.44 | 91.1 | 98.2 | 102 | 107 | 91.9 | 97.6 | 93.2 | 13 | 7.6 | 6.42 | 6.63
4 | CN\1C(=O)/C(=C(\N=C1N2CCCC[S+]2([O-])=O)C(=O)NCC3=CC=C(F)C=C3)O | 98.9 | 107 | 104 | 97.3 | 98.5 | 96.6 | 96.9 | 107 | 98.3 | 109 | 91.2 | 104 | 95.1 | 103 | 116 | 121 | 97.8 | 107 | 111 | 85.5 | 111 | 95.3 |  |  |  |  |  |  |  |  |  |  | 
5 | C[C@H](O)[C@H]1[C@@H]2[C@H](C)C(=C(\N2C1=O)C(O)=O)/S[C@@H]3CN[C@H](CN[S+](N)([O-])=O)C3 | 116 | 121 | 122 | 130 | 132 | 113 | 108 | 108 | 100 | 108 | 111 |  |  |  |  |  |  |  |  |  |  |  | 124 | 123 | 136 | 128 | 132 | 115 | 125 | 112 | 120 | 118 | 109
6 | CC(C)n1c(/C=C/[C@H](O)C[C@H](O)CC(=O)O)c(-c2ccc(F)cc2)c2ccccc21 | 102 | 99.3 | 123 | 107 | 125 | 129 | 105 | 99.2 | 85 | 83.4 | 37.9 | 92.9 | 90.7 | 129 | 112 | 126 | 129 | 129 | 116 | 101 | 83.8 | 26.8 | 103 | 105 | 126 | 107 | 116 | 113 | 106 | 103 | 95.5 | 60.7 | 19
7 | CC(C)(C)C(=O)Oc1ccc2c(c1)nc(NC(=O)c1cccc([N+](=O)[O-])c1)n2CCCO | 107 | 122 | 118 | 119 | 110 | 120 | 110 | 104 | 102 | 88.5 | 93.2 | 121 | 138 | 122 | 116 | 108 | 121 | 101 | 81.1 | 107 | 106 | 128 | 130 | 120 | 118 | 112 | 117 | 126 | 114 | 95.7 | 97.5 | 105 | 118
8 | C[C@]12CC[C@@H]3c4ccc(OC(=O)N(CCCl)CCCl)cc4CC[C@H]3[C@@H]1CC[C@@H]2OP(=O)([O-])[O-].[Na+].[Na+] | 107 | 107 | 120 | 109 | 106 | 105 | 104 | 108 | 66.8 | 62.5 | 63.2 | 111 | 112 | 102 | 85.3 | 110 | 93.9 | 83.4 | 76.3 | 67.5 | 65.3 | 54.9 | 101 | 118 | 120 | 99.2 | 118 | 115 | 87.9 | 90.5 | 68.1 | 65.4 | 27.5
9 | C[C@]12C[C@H](O)[C@H]3[C@@H](CC\C4=C\C(=O)\C=C/[C@]34C)[C@@H]1CC[C@]2(O)C(=O)CO | 113 | 112 | 119 | 118 | 129 | 118 | 98.6 | 102 | 44.8 | 67.2 | 22.6 |  |  |  |  |  |  |  |  |  |  |  | 118 | 115 | 114 | 143 | 123 | 127 | 107 | 90.1 | 40.9 | 64.9 | 19.6
10 | COc1ccc(Cc2ccc(NC(N)=O)cc2)cc1-c1cccc(Cl)c1 | 106 | 104 | 110 | 95.4 | 122 | 123 | 106 | 119 | 120 | 122 | 106 | 107 | 111 | 113 | 123 | 124 | 122 | 108 | 111 | 120 | 108 | 87.3 | 100 | 102 | 101 | 117 | 110 | 113 | 113 | 115 | 113 | 115 | 103
